Experimental data reported in ChEMBL document CHEMBL4507304, “Data for DCP probe TP-021” (2021).

Assays:
[1] = target: Alpha-1B adrenergic receptor (Homo sapiens) (UniProt P35368); settings: Compound concentration 10.0 uM
[2] = test system: Hepatocyte growth factor receptor (Homo sapiens), P08581 [Y1235D]; settings: Compound concentration 1000.0 nM
[3] = target: Ribosomal protein S6 kinase alpha-2 (Homo sapiens) (UniProt Q15349); settings: Compound concentration 1000.0 nM
[4] = target: Proto-oncogene tyrosine-protein kinase receptor Ret (Homo sapiens) (UniProt P07949); settings: Compound concentration 1000.0 nM
[5] = target: Rho-associated protein kinase 2 (Homo sapiens) (UniProt O75116); settings: Compound concentration 1000.0 nM
[6] = target: D(4) dopamine receptor (Homo sapiens) (UniProt P21917); settings: Compound concentration 10.0 uM
[7] = target: Alpha-1D adrenergic receptor (Homo sapiens) (UniProt P25100); settings: Compound concentration 10.0 uM
[8] = test system: Phosphatidylinositol 4,5-bisphosphate 3-kinase catalytic subunit alpha isoform (Homo sapiens), P42336 [H1047L]; settings: Compound concentration 1000.0 nM
[9] = target: Dual specificity mitogen-activated protein kinase kinase 4 (Homo sapiens) (UniProt P45985); settings: Compound concentration 1000.0 nM
[10] = target: Serine/threonine-protein kinase Chk2 (Homo sapiens) (UniProt O96017); settings: Compound concentration 1000.0 nM
[11] = target: Serine/threonine-protein kinase MRCK gamma (Homo sapiens) (UniProt Q6DT37); settings: Compound concentration 1000.0 nM
[12] = test system: Epidermal growth factor receptor (Homo sapiens), P00533 [G719S]; settings: Compound concentration 1000.0 nM
[13] = target: Phosphatidylinositol 4-kinase beta (Homo sapiens) (UniProt Q9UBF8); settings: Compound concentration 1000.0 nM
[14] = target: Tyrosine-protein kinase ABL1 (Homo sapiens) (UniProt P00519); settings: Compound concentration 1000.0 nM
[15] = target: 5-hydroxytryptamine receptor 2A (Homo sapiens) (UniProt P28223); settings: Compound concentration 10.0 uM
[16] = test system: Epidermal growth factor receptor (Homo sapiens), P00533 [L858R,T790M]; settings: Compound concentration 1000.0 nM
[17] = test system: eIF-2-alpha kinase GCN2 (Homo sapiens), Q9P2K8 [S808G]; settings: Compound concentration 1000.0 nM
[18] = target: Ribosomal protein S6 kinase alpha-5 (Homo sapiens) (UniProt O75582); settings: Compound concentration 1000.0 nM
[19] = target: NT-3 growth factor receptor (Homo sapiens) (UniProt Q16288); settings: Compound concentration 1000.0 nM
[20] = test system: ALK tyrosine kinase receptor (Homo sapiens), Q9UM73 [C1156Y]; settings: Compound concentration 1000.0 nM
[21] = target: Serine/threonine-protein kinase RIO2 (Homo sapiens) (UniProt Q9BVS4); settings: Compound concentration 1000.0 nM
[22] = target: Epidermal growth factor receptor (Homo sapiens) (UniProt P00533); settings: Compound concentration 1000.0 nM
[23] = target: Serine/threonine-protein kinase B-raf (Homo sapiens) (UniProt P15056); settings: Compound concentration 1000.0 nM
[24] = target: Dual serine/threonine and tyrosine protein kinase (Homo sapiens) (UniProt Q6XUX3); settings: Compound concentration 1000.0 nM
[25] = target: Rho-associated protein kinase 1 (Homo sapiens) (UniProt Q13464); settings: Compound concentration 1000.0 nM
[26] = target: Histamine H4 receptor (Homo sapiens) (UniProt Q9H3N8); settings: Compound concentration 10.0 uM
[27] = target: Receptor-interacting serine/threonine-protein kinase 1 (Homo sapiens) (UniProt Q13546); settings: Compound concentration 1000.0 nM
[28] = target: Serine/threonine-protein kinase Sgk1 (Homo sapiens) (UniProt O00141); settings: Compound concentration 1000.0 nM
[29] = target: Serine/threonine-protein kinase LATS1 (Homo sapiens) (UniProt O95835); settings: Compound concentration 1000.0 nM
[30] = target: Serine/threonine-protein kinase 16 (Homo sapiens) (UniProt O75716); settings: Compound concentration 1000.0 nM
[31] = target: 3-phosphoinositide-dependent protein kinase 1 (Homo sapiens) (UniProt O15530); settings: Compound concentration 1000.0 nM
[32] = target: Ribosomal protein S6 kinase alpha-4 (Homo sapiens) (UniProt O75676); settings: Compound concentration 1000.0 nM
[33] = target: STE20/SPS1-related proline-alanine-rich protein kinase (Homo sapiens) (UniProt Q9UEW8); settings: Compound concentration 1000.0 nM
[34] = target: Vascular endothelial growth factor receptor 1 (Homo sapiens) (UniProt P17948); settings: Compound concentration 1000.0 nM
[35] = target: Serine/threonine-protein kinase MRCK beta (Homo sapiens) (UniProt Q9Y5S2); settings: Compound concentration 1000.0 nM
[36] = target: Delta-type opioid receptor (Homo sapiens) (UniProt P41143); settings: Compound concentration 10.0 uM
[37] = target: Ribosomal protein S6 kinase alpha-6 (Homo sapiens) (UniProt Q9UK32); settings: Compound concentration 1000.0 nM
[38] = target: Platelet-derived growth factor receptor alpha (Homo sapiens) (UniProt P16234); settings: Compound concentration 1000.0 nM
[39] = target: Ephrin type-B receptor 4 (Homo sapiens) (UniProt P54760); settings: Compound concentration 1000.0 nM
[40] = target: cAMP-dependent protein kinase catalytic subunit alpha (Homo sapiens) (UniProt P17612); settings: Compound concentration 1000.0 nM
[41] = target: Serine/threonine-protein kinase/endoribonuclease IRE1 (Homo sapiens) (UniProt O75460); settings: Compound concentration 1000.0 nM
[42] = target: Kappa-type opioid receptor (Homo sapiens) (UniProt P41145); settings: Compound concentration 10.0 uM
[43] = target: Serine/threonine-protein kinase Nek4 (Homo sapiens) (UniProt P51957); settings: Compound concentration 1000.0 nM
[44] = target: G protein-coupled receptor kinase 4 (Homo sapiens) (UniProt P32298); settings: Compound concentration 1000.0 nM
[45] = test system: Receptor-type tyrosine-protein kinase FLT3 (Homo sapiens), P36888 [N841I]; settings: Compound concentration 1000.0 nM

Platelet-derived growth factor receptor alpha (Homo sapiens), sequence (P16234 whole entry): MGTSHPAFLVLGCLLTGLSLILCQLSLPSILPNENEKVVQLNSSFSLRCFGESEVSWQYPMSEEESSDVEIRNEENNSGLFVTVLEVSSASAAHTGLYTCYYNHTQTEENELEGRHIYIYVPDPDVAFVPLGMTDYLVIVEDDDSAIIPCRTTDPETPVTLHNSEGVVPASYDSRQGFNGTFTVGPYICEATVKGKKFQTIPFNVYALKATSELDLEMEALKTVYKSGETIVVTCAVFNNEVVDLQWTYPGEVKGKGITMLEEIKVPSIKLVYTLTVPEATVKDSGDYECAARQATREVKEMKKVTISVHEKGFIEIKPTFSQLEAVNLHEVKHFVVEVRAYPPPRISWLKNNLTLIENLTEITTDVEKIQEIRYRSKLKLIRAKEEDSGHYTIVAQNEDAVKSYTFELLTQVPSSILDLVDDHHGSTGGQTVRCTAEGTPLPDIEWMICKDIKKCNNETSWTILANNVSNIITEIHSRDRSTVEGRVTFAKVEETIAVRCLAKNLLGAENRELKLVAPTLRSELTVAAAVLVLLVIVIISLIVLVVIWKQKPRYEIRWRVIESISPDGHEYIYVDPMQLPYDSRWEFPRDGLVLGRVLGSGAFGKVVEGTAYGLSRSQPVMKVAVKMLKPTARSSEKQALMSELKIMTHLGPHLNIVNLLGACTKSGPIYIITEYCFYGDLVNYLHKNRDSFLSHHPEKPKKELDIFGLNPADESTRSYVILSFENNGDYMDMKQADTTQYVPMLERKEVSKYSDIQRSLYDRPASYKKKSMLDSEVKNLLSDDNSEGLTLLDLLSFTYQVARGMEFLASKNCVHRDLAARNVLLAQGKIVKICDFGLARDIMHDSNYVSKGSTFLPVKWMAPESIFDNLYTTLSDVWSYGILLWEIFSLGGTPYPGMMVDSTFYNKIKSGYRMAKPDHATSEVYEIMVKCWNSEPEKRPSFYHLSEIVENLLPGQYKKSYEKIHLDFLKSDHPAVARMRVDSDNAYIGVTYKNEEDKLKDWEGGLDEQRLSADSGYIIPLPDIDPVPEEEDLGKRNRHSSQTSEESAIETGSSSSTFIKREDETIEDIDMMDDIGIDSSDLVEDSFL
eIF-2-alpha kinase GCN2 (Homo sapiens), Q9P2K8 [S808G], sequence (Q9P2K8 whole entry S808G): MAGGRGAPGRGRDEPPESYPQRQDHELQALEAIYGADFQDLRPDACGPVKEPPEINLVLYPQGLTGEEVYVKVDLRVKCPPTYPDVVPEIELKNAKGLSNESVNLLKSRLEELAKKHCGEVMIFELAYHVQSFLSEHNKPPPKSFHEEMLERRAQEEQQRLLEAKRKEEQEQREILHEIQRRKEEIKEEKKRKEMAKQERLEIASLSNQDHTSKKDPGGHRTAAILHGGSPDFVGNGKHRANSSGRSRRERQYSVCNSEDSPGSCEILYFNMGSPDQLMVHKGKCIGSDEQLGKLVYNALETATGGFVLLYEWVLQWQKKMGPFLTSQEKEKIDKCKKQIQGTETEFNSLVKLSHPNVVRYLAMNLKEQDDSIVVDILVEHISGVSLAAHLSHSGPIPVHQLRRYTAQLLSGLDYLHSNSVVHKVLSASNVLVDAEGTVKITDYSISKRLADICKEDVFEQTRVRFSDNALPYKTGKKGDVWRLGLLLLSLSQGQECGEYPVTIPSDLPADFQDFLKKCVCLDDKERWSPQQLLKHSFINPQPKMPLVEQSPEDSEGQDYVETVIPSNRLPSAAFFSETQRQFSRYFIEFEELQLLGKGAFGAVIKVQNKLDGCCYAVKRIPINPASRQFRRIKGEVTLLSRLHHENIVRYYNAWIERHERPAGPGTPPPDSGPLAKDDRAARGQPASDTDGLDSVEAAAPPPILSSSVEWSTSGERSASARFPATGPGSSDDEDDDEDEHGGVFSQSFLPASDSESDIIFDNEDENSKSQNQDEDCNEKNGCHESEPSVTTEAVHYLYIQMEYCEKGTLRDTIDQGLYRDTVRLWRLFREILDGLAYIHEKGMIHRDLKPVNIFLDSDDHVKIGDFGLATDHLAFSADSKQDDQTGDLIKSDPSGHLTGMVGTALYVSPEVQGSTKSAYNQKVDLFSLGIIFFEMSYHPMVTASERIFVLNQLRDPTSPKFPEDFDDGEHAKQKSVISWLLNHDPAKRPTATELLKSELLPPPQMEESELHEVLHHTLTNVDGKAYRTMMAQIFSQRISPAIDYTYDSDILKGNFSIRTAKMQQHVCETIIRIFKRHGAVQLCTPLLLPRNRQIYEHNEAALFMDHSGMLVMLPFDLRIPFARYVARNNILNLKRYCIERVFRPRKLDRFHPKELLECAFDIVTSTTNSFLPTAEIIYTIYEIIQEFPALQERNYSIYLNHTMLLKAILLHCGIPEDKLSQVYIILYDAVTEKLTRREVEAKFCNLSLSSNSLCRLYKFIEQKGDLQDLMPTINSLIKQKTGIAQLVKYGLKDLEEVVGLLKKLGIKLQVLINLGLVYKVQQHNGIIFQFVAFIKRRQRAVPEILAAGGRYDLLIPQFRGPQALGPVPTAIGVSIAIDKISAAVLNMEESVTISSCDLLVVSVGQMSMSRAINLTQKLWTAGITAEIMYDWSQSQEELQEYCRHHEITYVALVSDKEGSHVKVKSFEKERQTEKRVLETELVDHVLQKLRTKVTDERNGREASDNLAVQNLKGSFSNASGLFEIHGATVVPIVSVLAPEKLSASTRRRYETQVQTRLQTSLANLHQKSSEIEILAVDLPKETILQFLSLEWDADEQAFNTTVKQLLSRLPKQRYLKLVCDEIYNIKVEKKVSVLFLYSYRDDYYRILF
Tyrosine-protein kinase ABL1 (Homo sapiens), sequence (P00519 whole entry): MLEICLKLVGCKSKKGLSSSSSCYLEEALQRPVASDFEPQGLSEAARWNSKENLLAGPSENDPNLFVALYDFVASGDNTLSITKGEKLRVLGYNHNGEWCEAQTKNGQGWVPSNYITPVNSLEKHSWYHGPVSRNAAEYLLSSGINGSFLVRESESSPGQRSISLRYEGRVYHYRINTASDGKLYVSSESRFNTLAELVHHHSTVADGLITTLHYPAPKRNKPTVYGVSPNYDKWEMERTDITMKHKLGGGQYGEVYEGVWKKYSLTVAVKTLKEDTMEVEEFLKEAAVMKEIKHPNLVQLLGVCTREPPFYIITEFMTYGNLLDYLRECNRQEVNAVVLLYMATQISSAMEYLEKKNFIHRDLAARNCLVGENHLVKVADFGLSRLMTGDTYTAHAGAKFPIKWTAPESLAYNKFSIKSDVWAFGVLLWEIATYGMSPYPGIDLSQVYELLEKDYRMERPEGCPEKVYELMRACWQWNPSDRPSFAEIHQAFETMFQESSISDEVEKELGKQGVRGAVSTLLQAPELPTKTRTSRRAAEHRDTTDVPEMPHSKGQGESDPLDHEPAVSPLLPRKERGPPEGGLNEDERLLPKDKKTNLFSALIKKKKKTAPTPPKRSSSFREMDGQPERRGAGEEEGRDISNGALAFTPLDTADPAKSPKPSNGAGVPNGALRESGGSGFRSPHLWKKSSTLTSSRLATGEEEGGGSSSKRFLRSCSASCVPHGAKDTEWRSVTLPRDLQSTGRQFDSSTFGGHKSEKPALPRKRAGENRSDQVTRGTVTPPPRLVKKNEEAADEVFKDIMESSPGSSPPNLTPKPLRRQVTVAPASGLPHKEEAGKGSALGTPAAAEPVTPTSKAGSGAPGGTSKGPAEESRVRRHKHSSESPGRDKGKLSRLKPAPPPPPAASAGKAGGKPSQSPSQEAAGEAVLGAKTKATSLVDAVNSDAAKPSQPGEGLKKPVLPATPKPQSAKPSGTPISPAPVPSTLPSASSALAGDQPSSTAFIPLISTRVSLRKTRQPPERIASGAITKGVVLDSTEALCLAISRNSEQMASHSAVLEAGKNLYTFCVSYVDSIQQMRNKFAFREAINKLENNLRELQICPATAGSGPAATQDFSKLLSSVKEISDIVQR
Serine/threonine-protein kinase B-raf (Homo sapiens), sequence (P15056 whole entry): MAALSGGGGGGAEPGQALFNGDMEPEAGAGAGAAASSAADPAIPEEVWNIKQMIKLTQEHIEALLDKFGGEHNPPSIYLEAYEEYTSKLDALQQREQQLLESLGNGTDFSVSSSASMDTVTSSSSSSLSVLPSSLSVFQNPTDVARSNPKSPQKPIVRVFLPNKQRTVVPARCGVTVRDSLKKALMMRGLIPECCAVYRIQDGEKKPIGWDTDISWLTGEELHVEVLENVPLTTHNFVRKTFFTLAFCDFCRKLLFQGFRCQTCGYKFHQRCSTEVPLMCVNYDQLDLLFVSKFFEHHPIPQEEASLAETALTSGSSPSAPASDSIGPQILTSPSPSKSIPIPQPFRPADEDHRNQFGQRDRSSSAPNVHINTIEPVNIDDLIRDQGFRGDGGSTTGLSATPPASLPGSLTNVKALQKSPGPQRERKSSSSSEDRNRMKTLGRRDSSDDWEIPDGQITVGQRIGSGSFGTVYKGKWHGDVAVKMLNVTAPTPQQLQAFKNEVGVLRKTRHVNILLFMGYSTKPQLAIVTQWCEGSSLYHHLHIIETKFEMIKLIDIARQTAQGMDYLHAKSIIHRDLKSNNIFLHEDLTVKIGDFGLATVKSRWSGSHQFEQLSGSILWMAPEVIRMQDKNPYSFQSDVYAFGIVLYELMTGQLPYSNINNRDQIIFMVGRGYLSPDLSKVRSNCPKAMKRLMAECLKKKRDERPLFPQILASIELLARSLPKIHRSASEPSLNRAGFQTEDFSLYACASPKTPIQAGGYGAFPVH
Histamine H4 receptor (Homo sapiens), sequence (Q9H3N8 whole entry): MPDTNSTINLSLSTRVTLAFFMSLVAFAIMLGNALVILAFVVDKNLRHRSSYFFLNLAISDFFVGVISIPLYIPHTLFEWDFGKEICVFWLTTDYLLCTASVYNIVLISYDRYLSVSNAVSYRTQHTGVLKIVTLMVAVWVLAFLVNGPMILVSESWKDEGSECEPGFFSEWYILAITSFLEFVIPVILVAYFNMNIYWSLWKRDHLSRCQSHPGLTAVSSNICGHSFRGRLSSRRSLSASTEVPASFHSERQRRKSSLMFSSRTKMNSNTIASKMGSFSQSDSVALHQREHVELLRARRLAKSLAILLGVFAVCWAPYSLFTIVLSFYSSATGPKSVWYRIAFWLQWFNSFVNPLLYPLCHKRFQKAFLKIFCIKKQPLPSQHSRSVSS

N#Cc1ccc(Nc2ccc3[nH]c(=O)[nH]c3c2)c(Cl)c1
inactive: inhibition [1] 10% | residual activity [2] 95% | residual activity [3] 100% | residual activity [4] 97% | residual activity [5] 100% | inhibition [6] -2.02% | inhibition [7] -5.71% | residual activity [8] 78% | residual activity [9] 100% | residual activity [10] 100% | residual activity [11] 100% | residual activity [12] 100% | residual activity [13] 100% | residual activity [14] 100% | inhibition [15] 5.37% | residual activity [16] 79% | residual activity [17] 93% | residual activity [18] 100% | residual activity [19] 100% | residual activity [20] 100% | residual activity [21] 89% | residual activity [22] 100% | residual activity [23] 100% | residual activity [24] 75% | residual activity [25] 100% | inhibition [26] 4.43% | residual activity [27] 100% | residual activity [28] 100% | residual activity [29] 76% | residual activity [30] 91% | residual activity [31] 97% | residual activity [32] 70% | residual activity [33] 100% | residual activity [34] 100% | residual activity [35] 100% | inhibition [36] -0.28% | residual activity [37] 84% | residual activity [38] 100% | residual activity [39] 98% | residual activity [40] 96% | residual activity [41] 86% | inhibition [42] 8.98% | residual activity [43] 100% | residual activity [44] 100% | residual activity [45] 77%

O=C1CCc2cc(Nc3cc(OC4CCOCC4)c([N+](=O)[O-])cc3Cl)ccc2N1
inactive: inhibition [1] 17.2% | residual activity [2] 100% | residual activity [3] 100% | residual activity [4] 89% | residual activity [5] 100% | inhibition [6] -2.6% | inhibition [7] 3.49% | residual activity [8] 78% | residual activity [9] 100% | residual activity [10] 69% | residual activity [11] 99% | residual activity [12] 100% | residual activity [13] 100% | residual activity [14] 100% | inhibition [15] 3.21% | residual activity [16] 76% | residual activity [17] 85% | residual activity [18] 86% | residual activity [19] 100% | residual activity [20] 91% | residual activity [21] 89% | residual activity [22] 100% | residual activity [23] 100% | residual activity [24] 90% | residual activity [25] 80% | inhibition [26] 11.6% | residual activity [27] 100% | residual activity [28] 100% | residual activity [29] 81% | residual activity [30] 93% | residual activity [31] 100% | residual activity [32] 65% | residual activity [33] 100% | residual activity [34] 100% | residual activity [35] 90% | inhibition [36] 3.32% | residual activity [37] 77% | residual activity [38] 97% | residual activity [39] 100% | residual activity [40] 96% | residual activity [41] 99% | inhibition [42] 12.4% | residual activity [43] 100% | residual activity [44] 100% | residual activity [45] 100%
